{
  "source": "patent US6710030B1",
  "about": "“Contortrostain (CN) and methods for its use in preventing metastasis and other conditions” (University of Southern California, priority 1993, dated 2004)",
  "key": {"[1]": {"system": "coronary artery thrombosis", "details": "with recombinant tPA and heparin; cited from earlier work"}, "MDA-MB-435 cells [2]": {"system": "MDA-MB-435 cells", "assay": "Binding of MDA-MB-435 cells to immobilized CN", "assay_type": "cell-based, human", "details": "CN at 0.1 μg/well; read-out: IC50 for blocking binding of MDA-MB-435 cells to immobilized CN", "protocol": "The effect of CN on binding of highly metastatic human breast cancer cells, MDA-MB-435 cell line, to ECM proteins was examined. Human fibronectin and vitronectin were immobilized in the wells of 96-well microtiter plates. […] In a variation of the above experiments, CN was immobilized. […] Referring to FIGS. 12 and 13, varying concentrations of GRGDSP (FIG. 12) or EDTA (FIG. 13) were used to inhibit binding of human mammary carcinoma cells to immobilized CN. CN was at 0.1 μg/well. The vertical line at each data point indicates the y-axis error bar. All experiments were conducted as three sets of triplicates for each data point."}, "[3]": {"system": "canine carotid artery thrombosis model", "assay": "Reoccluding canine carotid artery thrombosis model", "assay_type": "in vivo", "description": "The model of carotid artery thrombosis in the anesthetized canine described is a modification of one developed for the study of experimentally-induced coronary artery thrombosis [Romson, J. L. et al., Thromb. Res. 17:841 (1980)]. The experimental procedure results in the formation of a platelet rich intravascular thrombus at the site of an electrolytically-induced endothelial lesion in proximity to a distal arterial stenosis. The carotid artery is selected for the experimental model, thereby allowing one vessel to be used as a control and the other to be used after administration of the thrombolytic and antithrombotic therapy. APSAC (anisoylated plasminogen streptokinase activator complex) has been used as the thrombolytic agent successfully in this model. […] The lytic-antithrombotic combination of agents may then be administered to only one of the occluded vessels; this allows for an internal control and eliminates those animals that may not form thrombi due to causes unrelated to the vessel wall injury and subsequent occlusive thrombus formation, i.e., low circulating platelet counts, enhanced spontaneous thrombolysis, presence of heart worms, etc. Parameters which are recorded include repeated measures of: phasic and mean carotid artery blood flow velocity using an ultrasonic flow probe, time to thrombotic occlusion, time to recannulization, ex vivo platelet aggregation, prothrombin time, thrombin time, activated partial thromboplastin time, red cell and white cell counts, hematocrit, EKG profile and body temperature, before and after administration of APSAC or APSAC plus CN to separate groups of animals.\nConditioned male mongrel dogs (8-10 kg) have been used for all in vivo studies. Dogs are anesthetized with sodium pentobarbital, intubated and allowed to breath room air under positive pressure respiration. Arterial blood gasses and pH determinations are made every 45 minutes and appropriate adjustments made to maintain the blood gasses and arterial pH within normal limits. Both common carotid arteries and the right internal jugular vein are exposed. A catheter is inserted into the jugular vein for blood sampling and administration of the test drug. Arterial blood pressure is monitored from the cannulated femoral artery with the use of a blood pressure transducer. A Doppler flow probe is placed on each common carotid artery proximal to both the point of insertion of the intraarterial electrode and the mechanical constrictor. […] Blood flow velocity in the carotid vessels is monitored continuously. […]\nElectrolytic injury to the intimal surface of each carotid vessel is accomplished with the use of an intravascular electrode. […] The current delivered to each vessel is monitored continuously and maintained at 300 μA. […]"}, "T24 cells": {"system": "T24 cells", "assay": "Phosphotyrosine immunoblot, T24 cells", "assay_type": "cell-based, human", "details": "pretreated 30 min, 10 nM contortrostatin", "protocol": "(§1) Cell culture, preparation and stimulation—T24 cells were maintained in RPMI 1640 medium containing 5% fetal bovine serum, and MDA-MB-435 and 293 cells were maintained in Dulbecco's modified Eagle's medium with 10% serum at 37° C. in 5% CO2. Cells were washed with phosphate-buffered saline (PBS) and starved in the appropriate serum-free medium for 6 h at 37° C. Cells were detached by brief treatment with 0.05% trypsin/0.02% EDTA in PBS and collected by centrifugation, resuspended in soybean trypsin inhibitor (1 mg/ml in serum-free medium), and washed in 2% bovine serum albumin/serum-free medium. Cells were maintained in suspension for 1 h in 2% bovine serum albumin/serum-free medium at 37° C. with end-over-end agitation. Quiescent cells (3×10^6/ml) were treated with disintegrins or other reagents while in suspension, or were allowed to adhere to Matrigel (Becton Dickinson, Bedford, Mass.) diluted 1:100 with serum-free medium during treatment.\nLysate preparation and immunoprecipitation—Suspended and adherent cells were washed twice with cold PBS and lysed in cold lysis buffer (50 mM Tris, pH 8.0, 150 mM NaCl, 1% Nonidet P-40, 0.5% deoxycholate, 0.1% SDS, protease inhibitor cocktail, 1 mM sodium pyrophosphate, 1 mM sodium orthovanadate, 50 mM sodium fluoride). […]"}, "MDA-MB-435 cells [4]": {"system": "MDA-MB-435 cells", "assay": "Phosphotyrosine immunoblot, MDA-MB-435 cells", "assay_type": "cell-based, human", "protocol": "as §1\nLysate preparation and immunoprecipitation—Suspended and adherent cells were washed twice with cold PBS and lysed in cold lysis buffer (50 mM Tris, pH 8.0, 150 mM NaCl, 1% Nonidet P-40, 0.5% deoxycholate, 0.1% SDS, protease inhibitor cocktail, 1 mM sodium pyrophosphate, 1 mM sodium orthovanadate, 50 mM sodium fluoride). After 10-15 min incubation on ice, insoluble material was removed by centrifugation at 14,000 RPM in a microcentrifuge for 15 min. Supernatants were collected and total protein concentrations standardized by the BCA protein assay (Pierce, Rockford, Ill.). Immunoprecipitation was carried out by incubating whole cell lysates (200 μg total protein) with 1.25 μg anti-FAK or anti-CAS mAb 4-6 h at 4° C. followed by 20 μl protein G-agarose overnight at 4° C. Immunoprecipitates were washed 4 times in lysis buffer without inhibitors and dissociated by adding SDS-PAGE sample buffer and boiling 5 min. Whole cell lysates (30 μg total protein) or immunoprecipitates were resolved by 7.5% SDS-polyacrylamide gel electrophoresis and transferred to nitrocellulose membranes. […]"}, "[5]": {"system": "acute thrombotic reocclusion", "details": "added to heparin plus tPA; cited from earlier work"}, "platelets": {"system": "platelets", "details": "measured by e.g. serotonin release from dense granules; cited from earlier work"}},
  "note": "Where “and” joins values, the source holds several entries; their conditions need not be identical. Equal values may be shown once.",
  "data": [
    {"compound": "kistrin", "values": [
      {"measurement": "effective dose sufficient to prevent reocclusion", "setting": "[1]", "result": 4, "unit": "µg/kg/min"}
    ]},
    {"compound": "O=C(O)CN(CCN(CC(=O)O)CC(=O)O)CC(=O)O", "note": "[EDTA]", "values": [
      {"measurement": "IC50", "setting": "MDA-MB-435 cells [2]", "result": 800, "unit": "µM"}
    ]},
    {"compound": "anisoylated plasminogen streptokinase activator complex [APSAC]", "values": [
      {"measurement": "RCA Thrombus, weight of residual thrombus, individual dog", "setting": "[3]; Dog # 1-6, listed as APSAC Control", "result": "27.3 mg and 47.6 mg and 90.5 mg and 60.1 mg and 67.5 mg and 78.5 mg"},
      {"measurement": "carotid artery patency after infusion", "setting": "[3]; dog, in vivo", "result": "reoccluded and remained closed for the duration of the study"},
      {"measurement": "RCA Thrombus, weight of residual thrombus, Mean", "setting": "[3]; group mean", "result": 61.9, "unit": "mg"},
      {"measurement": "Thrombus weight per kg (dog weight)", "setting": "[3]; group mean", "result": 4.1}
    ]},
    {"compound": "Cc1ccc(-c2nn(C(C)(C)C)c3ncnc(N)c23)cc1", "note": "[PP1, reference compound]", "values": [
      {"measurement": "concentration for complete elimination of contortrostatin-induced signals", "setting": "T24 cells", "result": 100, "unit": "µM"},
      {"measurement": "concentration for complete inhibition of contortrostatin-induced tyrosine phosphorylation", "setting": "MDA-MB-435 cells [4]; pretreated 30 min, 10 nM contortrostatin", "result": 10, "unit": "µM"}
    ]},
    {"compound": "echistatin (QCESGPCCRNCKFLKEGTICKRARGDDMDDYCNGKTCDCPRNPHKGPAT) [reference compound]", "values": [
      {"measurement": "incidence of acute thrombotic reocclusion", "setting": "[5]", "result": "dramatic reductions in the incidence of acute thrombotic reocclusion"},
      {"measurement": "effect on contortrostatin (10 nM)-induced tyrosine phosphorylation", "setting": "MDA-MB-435 cells [4]; 1 μM, added simultaneously, 10 min", "result": "completely abrogated"},
      {"measurement": "effect alone on tyrosine phosphorylation", "setting": "MDA-MB-435 cells [4]; concentrations up to 1 μM", "result": "no effect on tyrosine phosphorylation"}
    ]},
    {"compound": "applaggin", "values": [
      {"measurement": "platelet release", "setting": "platelets", "result": "also inhibits platelet release"}
    ]}
  ]
}
